Several values for one entry are separate records, joined by “and”; a condition that tells them apart may be missing. Equal values may be shown once.
Experiments:
[1] = test system: human lymphocytes; assay: In vitro micronucleus test; format: cell-based; conditions: 6.25 µg/mL, +S9, positive control
Protocol: Duplicate human lymphocyte cultures were prepared from the pooled blood of two donors in two independent experiments. […] The test concentrations for micronucleus analysis were selected by evaluating the effect of fexinidazole on the replication index (RI). In each experiment, micronuclei were analysed at three concentrations. Similar tests were carried out on fexinidazole sulfone. As per the Ames test, this was carried out in the absence of rat liver S9 only.

[2] = test system: bone marrow polychromatic erythrocytes; assay: In vivo bone marrow micronucleus test; design: species or system mouse; conditions: 4.0 mg/kg, positive control
Protocol: Groups of six young adult male Crl:CD-1 (ICR) mice were treated with fexinidazole at two oral doses of 0, 500, 1000, or 2000 mg/kg given 24 h apart, and bone marrows were harvested 24 h after the second dose. Slides of bone marrow cells were prepared, Giemsa stained, and 2000 polychromatic erythrocytes per animal were scored for micronuclei.

[3] = test system: T. b. rhodesiense (STIB 900); assay: In vitro trypanocidal assay (Alamar Blue); format: cell-based, Trypanosoma brucei rhodesiense; conditions: Trypanosoma brucei, 72 h; read-out: IC50
Protocol: (§1) 10 µL of Alamar Blue was added for the final 3 h to determine viability. […] The IC50 values were calculated from the sigmoidal inhibition curves. For cytotoxicity, 4×10^4/mL L-6 rat skeletal myoblast cells were used, and incubations and assessments carried out as above.

[4] = test system: L-6 rat myoblast cells; assay: Cytotoxicity assay; format: cell-based; conditions: 72 h, read-out: IC50
Protocol: as §1

[5] = test system: T. b. gambiense (STIB 930); assay: In vitro trypanocidal assay (Alamar Blue); format: cell-based, Trypanosoma brucei gambiense; conditions: Trypanosoma brucei, 72 h; read-out: IC50
Protocol: Parasites were cultured with or without the test article at a concentration of 3×10^4/mL in Minimal Essential Medium, according to Baltz et al., with the following modifications: 0.2 mM 2-mercaptoethanol, 1 mM Na-pyruvate, 0.5 mM hypoxanthine and 15% heat inactivated horse serum at 37°C in 5% CO2 in 96-well microtitre plates for 72 h. 10 µL of Alamar Blue was added for the final 3 h to determine viability. The assay was assessed by reading the fluorescence in each well at an excitation wavelength of 536 nm and at an emission wavelength of 588 nm. The IC50 values were calculated from the sigmoidal inhibition curves. For cytotoxicity, 4×10^4/mL L-6 rat skeletal myoblast cells were used, and incubations and assessments carried out as above.

SMILES | Micronucleated binucleate cells ([1]; 24-h PHA) [%] | Micronucleated binucleate cells ([1]; 48-h PHA) [%] | Micronucleated PCE/1000 [2] | PCE/NCE [2] | IC50 [3] | IC50 [4] | IC50 [5]
O=P1(N(CCCl)CCCl)NCCCO1 (stereo not shown) [Cyclophosphamide, reference compound] | 3.60 | 12.85 | 19.3 | 0.89 |  |  | 
NCCCC(N)(C(=O)O)C(F)F (stereo not shown) [Eflornithine] |  |  |  |  | 0.9 µg/mL and 3.8 µM | 12 µg/mL and 51 µM | 0.4 µg/mL and 1.67 µM

Reference: publication PMC3006138, “Fexinidazole – A New Oral Nitroimidazole Drug Candidate Entering Clinical Development for the Treatment of Sleeping Sickness” (PLoS Neglected Tropical Diseases, 2010)
